Measurements from patent publication US10968236B2, “TYK2 inhibitors and uses thereof” (Nimbus Lakshmi, Inc., priority 2015, dated 2021).
Counter-ions that a name gives are not always drawn.

Key:
TYK2 = TYK2 (Homo sapiens (Human), UniProt P29597); experiment: Tyk2 activity inhibition assay (radioactive kinase / Caliper assay); format: biochemical
[1] = system: IL-12 induced pSTAT4 (Tyk2-pSTAT4); experiment: IL-12 Induced pSTAT4 in human PBMC; format: cell-based; details: IL-12 1.7 ng/mL
Procedure: IL-12 Induced pSTAT4 in human PBMC. Human PBMC are isolated from buffy coat and are stored frozen for assays as needed. Cells for assay are thawed and resuspended in complete media containing serum, then cells are diluted to 1.67 E6 cells/ml so that 120 μl per well is 200,000 cells. 15 μl of compound or DMSO is added to the well at the desired concentrations and incubated at 1 hr at 37 C. 15 μl of stimulus (final concentration of 1.7 ng/mL IL-12) is added for 30 minutes prior to pSTAT4 and total STAT4 analysis using cell lysates prepared and analyzed by MSD reagents as per manufacturer protocol. The final DMSO concentration of compound in the assay is 0.1%.
(§1) The compound numbers correspond to the compound numbers in Table 1. Compounds having an activity designated as “A” provided an EC50≤2 μM; compounds having an activity designated as “B” provided a EC50 of 2-20 μM, and compounds having an activity designated as “C” provided an EC50>20 μM.

JAK2 = JAK2 (Homo sapiens (Human), UniProt O60674); experiment: JAK2 activity inhibition assay (radioactive kinase / Caliper assay); format: biochemical
Sequence of JAK2 (O60674 whole entry): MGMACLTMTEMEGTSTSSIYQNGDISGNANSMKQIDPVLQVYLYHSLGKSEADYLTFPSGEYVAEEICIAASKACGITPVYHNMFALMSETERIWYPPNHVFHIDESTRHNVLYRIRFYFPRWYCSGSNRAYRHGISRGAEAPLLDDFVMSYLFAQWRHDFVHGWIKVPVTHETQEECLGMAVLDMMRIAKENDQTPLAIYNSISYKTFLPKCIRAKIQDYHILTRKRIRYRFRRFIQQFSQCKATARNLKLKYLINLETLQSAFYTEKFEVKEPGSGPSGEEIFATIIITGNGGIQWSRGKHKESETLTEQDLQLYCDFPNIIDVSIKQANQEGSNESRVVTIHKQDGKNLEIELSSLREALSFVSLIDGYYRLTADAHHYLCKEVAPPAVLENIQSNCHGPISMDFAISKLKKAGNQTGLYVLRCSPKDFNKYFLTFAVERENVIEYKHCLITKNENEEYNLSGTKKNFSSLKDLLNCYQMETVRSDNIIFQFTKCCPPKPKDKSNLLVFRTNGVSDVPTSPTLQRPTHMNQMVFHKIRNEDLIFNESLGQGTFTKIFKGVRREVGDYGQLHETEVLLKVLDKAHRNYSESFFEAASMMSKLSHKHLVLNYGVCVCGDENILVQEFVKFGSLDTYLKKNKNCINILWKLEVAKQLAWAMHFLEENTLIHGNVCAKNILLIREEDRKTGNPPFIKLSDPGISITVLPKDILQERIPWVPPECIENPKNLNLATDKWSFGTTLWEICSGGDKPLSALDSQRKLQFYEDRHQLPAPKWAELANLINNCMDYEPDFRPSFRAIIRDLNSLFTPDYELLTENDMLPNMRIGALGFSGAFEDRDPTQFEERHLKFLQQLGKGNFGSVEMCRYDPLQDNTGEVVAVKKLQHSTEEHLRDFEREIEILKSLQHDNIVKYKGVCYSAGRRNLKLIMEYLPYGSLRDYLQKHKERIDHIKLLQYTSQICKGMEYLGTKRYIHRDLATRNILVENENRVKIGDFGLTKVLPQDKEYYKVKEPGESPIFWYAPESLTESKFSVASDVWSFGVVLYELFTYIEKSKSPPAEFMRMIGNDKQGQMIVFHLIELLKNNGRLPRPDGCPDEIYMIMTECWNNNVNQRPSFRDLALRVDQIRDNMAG

[2] = system: GM-CSF induced pSTAT5 (JAK2-pSTAT5); experiment: GM-CSF Induced pSTAT5 in human PBMC; format: cell-based; details: GM-CSF 5 ng/mL
Procedure: GM-CSF Induced pSTAT5 in human PBMC. Cells are prepared for analysis as in the above procedure and 15 μl of GM-CSF (final concentration 5 ng/mL) is added for 20 minutes prior to pSTAT5 and total STAT5 analysis using cell lysates prepared and analyzed by MSD reagents as per manufacturer protocol. The final DMSO concentration of compound in the assay is 0.1%.
as §1

Sequence of TYK2 (P29597 whole entry): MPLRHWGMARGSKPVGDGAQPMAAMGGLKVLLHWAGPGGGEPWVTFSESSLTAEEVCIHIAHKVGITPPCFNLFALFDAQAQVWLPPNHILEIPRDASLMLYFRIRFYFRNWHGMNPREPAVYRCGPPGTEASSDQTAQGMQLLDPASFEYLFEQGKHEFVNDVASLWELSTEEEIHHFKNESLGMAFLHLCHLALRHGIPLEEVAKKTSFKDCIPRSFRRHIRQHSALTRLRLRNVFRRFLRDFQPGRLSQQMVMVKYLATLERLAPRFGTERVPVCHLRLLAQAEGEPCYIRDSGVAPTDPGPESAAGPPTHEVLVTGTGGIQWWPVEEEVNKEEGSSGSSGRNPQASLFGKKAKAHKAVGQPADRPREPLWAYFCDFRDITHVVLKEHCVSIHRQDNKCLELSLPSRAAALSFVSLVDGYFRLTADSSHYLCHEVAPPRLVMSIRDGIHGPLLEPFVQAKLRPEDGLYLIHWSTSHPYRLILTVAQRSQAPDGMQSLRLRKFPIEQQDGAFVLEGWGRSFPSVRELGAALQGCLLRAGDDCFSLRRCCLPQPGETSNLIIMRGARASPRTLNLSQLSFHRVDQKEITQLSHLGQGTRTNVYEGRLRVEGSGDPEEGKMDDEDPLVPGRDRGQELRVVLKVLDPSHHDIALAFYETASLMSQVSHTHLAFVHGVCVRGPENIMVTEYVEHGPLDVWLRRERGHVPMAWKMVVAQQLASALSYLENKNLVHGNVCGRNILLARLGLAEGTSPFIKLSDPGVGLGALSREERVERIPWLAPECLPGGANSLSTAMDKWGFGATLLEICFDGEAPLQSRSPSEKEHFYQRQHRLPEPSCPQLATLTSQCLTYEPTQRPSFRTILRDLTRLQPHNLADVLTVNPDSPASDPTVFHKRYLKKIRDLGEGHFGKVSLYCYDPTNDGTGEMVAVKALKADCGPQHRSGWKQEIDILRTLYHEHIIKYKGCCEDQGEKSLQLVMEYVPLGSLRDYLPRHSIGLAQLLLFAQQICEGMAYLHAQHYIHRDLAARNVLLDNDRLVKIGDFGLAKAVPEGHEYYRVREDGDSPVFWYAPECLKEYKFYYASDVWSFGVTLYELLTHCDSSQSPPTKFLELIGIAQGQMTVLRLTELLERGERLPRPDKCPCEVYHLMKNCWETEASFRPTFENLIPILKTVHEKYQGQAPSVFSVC

| Structure (SMILES) | Ki (TYK2) | EC50 [1] | Ki (JAK2) | EC50 [2] |
| --- | --- | --- | --- | --- |
| N#Cc1cccc(F)c1-c1cc(Nc2ccc(N3CC[C@@]4(C[C@@H](O)CO4)C3)cn2)c2c(n1)CNC2=O [Compound I-88, 3-fluoro-2-(4-((5-((3R,5R)-3-hydroxy-1-oxa-7-azaspiro[4.4]nonan-7-yl)pyridin-2-yl)amino)-5-oxo-6,7-dihydro-5H-pyrrolo[3,4-b]pyridin-2-yl)benzonitrile] | ≤ 10 nM | ≤ 2000 nM | ≤ 10 nM | ≤ 2000 nM |
| O=C1NCc2nc(-c3c(F)cccc3F)cc(Nc3ccc(N4C[C@H]5COC[C@H]5C4)cn3)c21 [Compound I-59, 2-(2,6-difluorophenyl)-4-((5-((3aR,6aS)-tetrahydro-1H-furo[3,4-c]pyrrol-5(3H)-yl)pyridin-2-yl)amino)-6,7-dihydro-5H-pyrrolo[3,4-b]pyridin-5-one] | ≤ 10 nM | ≤ 2000 nM | 10 to 100 nM | 2000 to 20000 nM |
| CC1(C)CNc2nc(Nc3cc(-c4c(F)cccc4F)nc4c3C(=O)NC4)ccc21 [Compound I-10, 2-(2,6-difluorophenyl)-4-((3,3-dimethyl-2,3-dihydro-1H-pyrrolo[2,3-b]pyridin-6-yl)amino)-6,7-dihydro-5H-pyrrolo[3,4-b]pyridin-5-one] | ≤ 10 nM | ≤ 2000 nM | 10 to 100 nM | ≤ 2000 nM |
| N#Cc1cccc(F)c1-c1cc(Nc2ccc(N3CCC4(C[C@H](O)CO4)C3)cn2)c2c(n1)CNC2=O (stereo in doubt) [Compound I-93, 3-fluoro-2-(4-((5-((3S,5R)-3-hydroxy-1-oxa-7-azaspiro[4.4]nonan-7-yl)pyridin-2-yl)amino)-5-oxo-6,7-dihydro-5H-pyrrolo[3,4-b]pyridin-2-yl)benzonitrile] | ≤ 10 nM | ≤ 2000 nM | 10 to 100 nM | 2000 to 20000 nM |
| O=C1NCc2nc(-c3c(F)cccc3F)cc(Nc3ccc4c(n3)NCCCO4)c21 [Compound I-18, 2-(2,6-difluorophenyl)-4-((2,3,4,5-tetrahydropyrido[3,2-b][1,4]oxazepin-7-yl)amino)-6,7-dihydro-5H-pyrrolo[3,4-b]pyridin-5-one] | ≤ 10 nM | ≤ 2000 nM | 10 to 100 nM | 2000 to 20000 nM |
| O=C1CCOc2cc(Nc3cc(-c4c(F)cccc4F)nc4c3C(=O)NC4)ccc21 [Compound I-72, 2-(2,6-difluorophenyl)-4-((4-oxochroman-7-yl)amino)-6,7-dihy-dro-5H-pyrrolo[3,4-b]pyridin-5-one] | 10 to 100 nM | > 20000 nM | ≥ 1000 nM | > 20000 nM |
| O=C1NCc2nc(-c3c(F)cccc3F)cc(Nc3ccc(N4CCC5(CCO5)CC4)cn3)c21 [Compound I-25, 4-((5-(1-oxa-7-azaspiro[3.5]nonan-7-yl)pyridin-2-yl)amino)-2-(2,6-difluorophenyl)-6,7-dihydro-5H-pyrrolo[3,4-b]pyridin-5-one] | ≤ 10 nM | ≤ 2000 nM | 10 to 100 nM | 2000 to 20000 nM |
| N#Cc1cccc(F)c1-c1cc(Nc2ccc(N3CCC4(CC(O)CO4)C3)cn2)c2c(n1)CNC2=O (stereo in doubt) [Compound I-89, 3-fluoro-2-(4-((5-((3S,5R)-3-hydroxy-1-oxa-7-azaspiro[4.4]nonan-7-yl)pyridin-2-yl)amino)-5-oxo-6,7-dihydro-5H-pyrrolo[3,4-b]pyridin-2-yl)benzonitrile] | ≤ 10 nM | ≤ 2000 nM | ≤ 10 nM | ≤ 2000 nM |
| CC1(C)CNc2cc(Nc3nc(-c4c(F)cccc4F)nc4c3C(=O)NC4)ccc21 [Compound I-2, 2-(2,6-difluorophenyl)-4-((3,3-dimethylindolin-6-yl)amino)-6,7-dihydro-5H-pyrrolo[3,4-d]pyrimidin-5-one] | ≤ 10 nM | ≤ 2000 nM | 10 to 100 nM | 2000 to 20000 nM |
| N#Cc1cccc(F)c1-c1cc(Nc2ccc(N3CCC4(C[C@H](O)CO4)C3)cn2)c2c(n1)CNC2=O (stereo in doubt) [Compound I-91, 3-fluoro-2-(4-((5-((3S,5S)-3-hydroxy-1-oxa-7-azaspiro[4.4]nonan-7-yl)pyridin-2-yl)amino)-5-oxo-6,7-dihydro-5H-pyrrolo[3,4-b]pyridin-2-yl)benzonitrile] | ≤ 10 nM | ≤ 2000 nM | ≤ 10 nM | ≤ 2000 nM |
| O=C1NCc2nc(-c3c(F)cccc3F)cc(Nc3cc4c(cn3)CCN4)c21 [Compound I-17, 2-(2,6-difluorophenyl)-4-((2,3-dihydro-1H-pyrrolo[3,2-c]pyridin-6-yl)amino)-6,7-dihydro-5H-pyrrolo[3,4-b]pyridin-5-one] | ≤ 10 nM | ≤ 2000 nM | 10 to 100 nM | 2000 to 20000 nM |
| O=C1NCc2nc(-c3c(F)cccc3F)cc(Nc3ccc(N4CCC5(CC4)OCCO5)cn3)c21 [Compound I-62, 4-((5-(1,4-dioxa-8-azaspiro[4.5]decan-8-yl)pyridin-2-yl)amino)-2-(2,6-difluorophenyl)-6,7-dihydro-5H-pyrrolo[3,4-b]pyridin-5-one] | ≤ 10 nM | ≤ 2000 nM | 10 to 100 nM | ≤ 2000 nM |
| N#Cc1cc(F)c(-c2cc(Nc3ccc(N4CCC5(CC4)CC5)cn3)c3c(n2)CNC3=O)c(F)c1 [Compound I-60, 4-(4-((5-(6-azaspiro[2.5]octan-6-yl)pyridin-2-yl)amino)-5-oxo-6,7-dihydro-5H-pyrrolo[3,4-b]pyridin-2-yl)-3,5-difluorobenzonitrile] | ≤ 10 nM | ≤ 2000 nM | 10 to 100 nM | 2000 to 20000 nM |
| O=C1NCc2nc(-c3c(F)cccc3F)cc(Nc3ccc(N4CCOC45COC5)cn3)c21 [Compound I-65, 4-((5-(2,5-dioxa-8-azaspiro[3.4]octan-8-yl)pyridin-2-yl)amino)-2-(2,6-difluorophenyl)-6,7-dihydro-5H-pyrrolo[3,4-b]pyridin-5-one] | ≤ 10 nM | ≤ 2000 nM | ≤ 10 nM | 2000 to 20000 nM |
| O=C1NCc2nc(-c3c(F)cccc3F)cc(Nc3ccc(N4CCC5(CC4)CC5)cn3)c21 [Compound I-20, 4-((5-(6-azaspiro[2.5]octan-6-yl)pyridin-2-yl)amino)-2-(2,6-difluorophenyl)-6,7-dihydro-5H-pyrrolo[3,4-b]pyridin-5-one] | ≤ 10 nM | ≤ 2000 nM | 10 to 100 nM | > 20000 nM |
| CCNC(=O)C(C)(C)c1ccc(Nc2cc(-c3c(F)cccc3F)nc3c2C(=O)NC3)cc1 [Compound I-67, 2-(4-((2-(2,6-difluorophenyl)-5-oxo-6,7-dihydro-5H-pyrrolo[3,4-b]pyridin-4-yl)amino)phenyl)-N-ethyl-2-methylpropanamide] | ≤ 10 nM | ≤ 2000 nM | ≤ 10 nM | 2000 to 20000 nM |
| O=C1NCc2nc(-c3c(F)cccc3F)cc(Nc3ccc(N4C[C@H]5CC[C@@H](C4)O5)cn3)c21 [Compound I-4, 4-((5-((1R,5S)-8-oxa-3-azabicyclo[3.2.1]octan-3-yl)pyridin-2-yl)amino)-2-(2,6-difluorophenyl)-6,7-dihydro-5H-pyrrolo[3,4-b]pyridin-5-one] | ≤ 10 nM | ≤ 2000 nM | 10 to 100 nM | ≤ 2000 nM |
| C[C@](O)(c1ccc(Nc2nc(-c3c(F)cccc3F)nc3c2C(=O)NC3)cc1)C(F)(F)F [Compound I-34, (S)-2-(2,6-difluorophenyl)-4-((4-(1,1,1-trifluoro-2-hydroxy-propan-2-yl)phenyl)amino)-6,7-dihydro-5H-pyrrolo[3,4-d]pyrimidin-5-one] | – | ≤ 2000 nM | 10 to 100 nM | 2000 to 20000 nM |
| CC1(C)COc2cc(Nc3cc(-c4c(F)cccc4F)nc4c3C(=O)NC4)ccc21 [Compound I-70, 2-(2,6-difluorophenyl)-4-((3,3-dimethyl-2,3-dihydrobenzofuran-6-yl)amino)-6,7-dihydro-5H-pyrrolo[3,4-b]pyridin-5-one] | ≤ 10 nM | ≤ 2000 nM | 100 to 1000 nM | > 20000 nM |
| CC1(C)Cc2ccc(Nc3nc(-c4c(F)cccc4F)nc4c3C(=O)NC4)cc2N1 [Compound I-3, 2-(2,6-difluorophenyl)-4-((2,2-dimethylindolin-6-yl)amino)-6,7-dihydro-5H-pyrrolo[3,4-d]pyrimidin-5-one] | ≤ 10 nM | – | 100 to 1000 nM | – |
| C[C@@](N)(C(=O)O)c1ccc(Nc2nc(-c3c(F)cccc3F)nc3c2C(=O)NC3)cc1 [Compound I-45, (S)-2-amino-2-(4-((2-(2,6-difluorophenyl)-5-oxo-6,7-dihydro-5H-pyrrolo[3,4-d]pyrimidin-4-yl)amino)phenyl)propanoic acid hydrochloride] | ≤ 10 nM | – | 100 to 1000 nM | – |
| N#Cc1cccc(F)c1-c1cc(Nc2ccc(N3CC[C@@]4(C[C@@H](O)CO4)C3)cn2)c2c(n1)CNC2=O [Compound I-90] | ≤ 10 nM | – | ≤ 10 nM | – |
| CN1C(=O)C(C)(c2ccc(Nc3nc(-c4c(F)cccc4F)nc4c3C(=O)NC4)cc2)c2ccccc21 (centres unmarked) [Compound I-48, 2-(2,6-difluorophenyl)-4-((4-(1,3-dimethyl-2-oxoindolin-3-yl)phenyl)amino)-6,7-dihydro-5H-pyrrolo[3,4-d]pyrimidin-5-one] | 10 to 100 nM | – | 100 to 1000 nM | – |
